Values joined by “and” are separate entries in the source; they are usually repeats but may differ in a detail not shown here. Equal values may be shown once.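 Following 48 hours of exposure in 96-well plates, responses at five concentrations were used to interpolate endpoints linearly. The concentration for 50% growth inhibition is given as GI50. TGI marks complete inhibition of growth.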
Key:
Assay in all cases: inhibition of tumour cell growth, NCI panel, 48 h
TK-10 renal = tested on: TK-10 renal
M14 melanoma = tested on: M14 melanoma
SR leukemia = tested on: SR leukemia
UACC-62 melanoma = tested on: UACC-62 melanoma
RPMI-8226 leukemia = tested on: RPMI-8226 leukemia
HCT-116 colon = tested on: HCT-116 colon
MDA-MB-435 = tested on: MDA-MB-435
NCI-H460 lung = tested on: NCI-H460 lung
MDA-MB-231 breast = tested on: MDA-MB-231 breast
A498 renal = tested on: A498 renal

Compound | GI50 (TK-10 renal) | TGI (TK-10 renal) | GI50 (M14 melanoma) | TGI (M14 melanoma) | GI50 (SR leukemia) | TGI (SR leukemia) | GI50 (UACC-62 melanoma) | TGI (UACC-62 melanoma) | GI50 (RPMI-8226 leukemia) | TGI (RPMI-8226 leukemia) | GI50 (HCT-116 colon) | TGI (HCT-116 colon) | GI50 (MDA-MB-435) | TGI (MDA-MB-435) | GI50 (NCI-H460 lung) | TGI (NCI-H460 lung) | GI50 (MDA-MB-231 breast) | TGI (MDA-MB-231 breast) | GI50 (A498 renal) | TGI (A498 renal)
COc1ccc(-c2ccncc2)cc1C(N)=O | > 25 µM | > 25 µM | > 25 µM | > 25 µM | > 25 µM | > 25 µM | > 25 µM | > 25 µM | > 25 µM | > 25 µM | > 25 µM | > 25 µM | > 25 µM | > 25 µM | > 25 µM | > 25 µM | > 25 µM | > 25 µM | > 22.8 µM | > 25 µM
COc1ccc(/C=C/C(=O)/C=C/c2cc3ccccc3[nH]c2=O)cc1 | 5.45 µM | 17.4 µM | 2.8 µM | 8.92 µM | 2.88 µM | 8.65 µM | 2.43 µM | 9.41 µM | 1.77 µM | 5.02 µM | 1.55 µM | 3.24 µM | 2.22 µM | 5.07 µM | 4.98 µM | 20 µM | 2.87 µM | 10.9 µM | 5.73 µM | 18.8 µM
CC(C)Nc1cc(-c2c[nH]c(C(=O)N[C@H](CO)c3cccc(Cl)c3)c2)c(Cl)cn1 | 0.795 µM and 0.36 µM | 18.6 µM and > 10 µM | 0.101 µM | > 2.58 µM | 3.38 µM and 3.66 µM | 40.5 µM and > 10 µM | 0.0826 µM and 0.13 µM | 12.3 µM and > 10 µM | 3.09 µM and 1.14 µM | 45.9 µM and > 10 µM | 0.154 µM and 0.162 µM | 11.4 µM and > 10 µM | 0.312 µM and 0.335 µM | 14.9 µM and > 10 µM | 1.35 µM and 1.05 µM | 15.8 µM and > 10 µM | 1.67 µM and 1.02 µM | 13.6 µM and > 8.38 µM | 0.084 µM and 0.255 µM | 1.41 µM and 1.95 µM
CC(C)c1c(-c2ccccc2)nc2c(C#N)c[nH]n2c1=O | 29.1 µM | > 100 µM | 30.6 µM | > 100 µM | 31.1 µM | > 100 µM | 24.3 µM | 72.2 µM | 24.2 µM | 67.7 µM | 30.5 µM | > 100 µM | 31.1 µM | > 100 µM | 32.6 µM | > 100 µM | 33 µM | > 100 µM | 13 µM | 51.1 µM
CC(C)c1cnn2c(NCc3ccccc3)cc(NC[C@H]3CCNC[C@@H]3O)nc12 | 1.5 µM and 2.27 µM | 10.4 µM and 10.9 µM | 0.586 µM and 0.688 µM | 2.25 µM and 2.2 µM | 0.0481 µM and 0.0623 µM | – | 0.236 µM and 0.29 µM | 1.96 µM and 1.92 µM | 0.158 µM and 0.211 µM | 1.82 µM and 4.14 µM | 0.168 µM and 0.158 µM | 10.9 µM and 10.8 µM | 0.343 µM and 0.578 µM | 1.74 µM and 2.07 µM | 0.0583 µM and 0.0817 µM | 1.7 µM and 3.31 µM | 0.388 µM and 0.536 µM | 7.52 µM and 3.67 µM | 1.63 µM and 2.59 µM | 4.2 µM and 8.15 µM
O=C(NOC[C@H](O)CO)c1ccc(F)c(F)c1Nc1ccc(I)cc1F | 0.0314 µM and 0.0174 µM | 86.2 µM and > 10 µM | < 0.01 µM and 0.00132 µM | 0.0969 µM | > 10 µM | > 100 µM | < 0.01 µM and 0.00155 µM | – | 35.9 µM and > 10 µM | > 100 µM | 0.0265 µM and 0.0182 µM | > 100 µM | < 0.01 µM and 0.00416 µM | > 100 µM | 15 µM and > 3.36 µM | > 100 µM | 0.16 µM and 0.0347 µM | 62.7 µM and > 10 µM | < 0.01 µM and 0.00351 µM | 0.0647 µM and 0.0694 µM
COc1cc2nc(SCc3cc(OC)c(OC)c(OC)c3)n(Cc3ccccc3)c(=O)c2cc1OC | 10.8 µM | 32.4 µM | 2.11 µM | > 26.8 µM | 0.533 µM | > 22.2 µM | 3.22 µM | 50.5 µM | 2.84 µM | > 100 µM | 2.42 µM | > 100 µM | 0.375 µM | 2.04 µM | 3.09 µM | > 100 µM | 4.45 µM | > 66 µM | 1.62 µM | 7.87 µM
O=C(/C=C/C12c3ccccc3C(c3ccccc31)C1C(=O)NC(=O)C12)c1ccc(Cl)cc1Cl (stereo not drawn) | 1.9 µM | 3.5 µM | 1.83 µM | 3.54 µM | 1.59 µM | 4.68 µM | 1.67 µM | 3.18 µM | 1.68 µM | 4.41 µM | 1.61 µM | 3.05 µM | 1.98 µM | 4.06 µM | 1.85 µM | 3.82 µM | 2.31 µM | 5.82 µM | 1.82 µM | 3.3 µM
